≈ marks a conversion by molar mass, not a printed value. Where two headings read alike, the source gives them in different places.
Assays:
Experiment in all cases: in vitro antibacterial activity, standard agar dilution method
Format in all cases: cell-based
[1] = system: Serratia marcescens IFO 12648; conditions: IFO12648, aerobic, read-out: minimum inhibitory concentration (MIC)
[2] = system: Escherichia coli NIHJ JC-2; conditions: NIHJJC2, aerobic, read-out: minimum inhibitory concentration (MIC)
[3] = system: Staphylococcus aureus FDA 209P JC-1; conditions: FDA209P, read-out: minimum inhibitory concentration (MIC)
[4] = system: Staphylococcus epidermidis IFO 12993; conditions: IFO12993, aerobic, read-out: minimum inhibitory concentration (MIC)
[5] = system: Enterobacter cloacae NR 2946; conditions: NR2946, aerobic, read-out: minimum inhibitory concentration (MIC)
[6] = system: Proteus vulgaris OX19 ATCC 6898; conditions: ATCC6898, aerobic, read-out: minimum inhibitory concentration (MIC)
[7] = system: Enterobacter aerogenes NR 2945; conditions: Klebsiella aerogenes, NR2945, aerobic, read-out: minimum inhibitory concentration (MIC)
[8] = system: Enterococcus faecalis NR 2943; conditions: NR2943, aerobic, read-out: minimum inhibitory concentration (MIC)
[9] = system: Proteus rettgeri ATCC 14505; conditions: Providencia rettgeri, ATCC14505, aerobic, read-out: minimum inhibitory concentration (MIC)
[10] = system: Pseudomonas stutzeri IFO 12695; conditions: Stutzerimonas stutzeri, IFO12695, aerobic, read-out: minimum inhibitory concentration (MIC)
[11] = system: Bordetella bronchiseptica ATCC 4617; conditions: ATCC4617, aerobic, read-out: minimum inhibitory concentration (MIC)
[12] = system: Escherichia coli NR 2630; conditions: NR2630; Escherichia coli NR 2630; aerobic; agar dilution; read-out: minimum inhibitory concentration (MIC)
[13] = system: Alcaligenes faecalis IFO 13111; conditions: IFO13111, aerobic, read-out: minimum inhibitory concentration (MIC)
[14] = system: Staphylococcus aureus Smith; conditions: read-out: minimum inhibitory concentration (MIC)
[15] = system: Klebsiella pneumoniae FDA PCI 602; conditions: FDAPCI602, aerobic, read-out: minimum inhibitory concentration (MIC)
[16] = system: Pseudomonas aeruginosa A3; conditions: aerobic, read-out: minimum inhibitory concentration (MIC)
[17] = system: Staphylococcus epidermidis NR 2942; conditions: NR2942, aerobic, read-out: minimum inhibitory concentration (MIC)
[18] = system: Bacillus subtilis PCI 219; conditions: PCI219, aerobic, read-out: minimum inhibitory concentration (MIC)
[19] = system: Pseudomonas aeruginosa NR 2950; conditions: NR2950, aerobic, read-out: minimum inhibitory concentration (MIC)
[20] = system: Citrobacter freundii IFO 12681; conditions: IFO12681, aerobic, read-out: minimum inhibitory concentration (MIC)
[21] = system: Staphylococcus aureus NR 2855; conditions: NR2855; Staphylococcus aureus NR 2855; aerobic; agar dilution; read-out: minimum inhibitory concentration (MIC)
[22] = system: Salmonella typhimurium IFO 12529; conditions: Salmonella enterica, aerobic, read-out: minimum inhibitory concentration (MIC)
[23] = Staphylococcus aureus FDA 209P JC-1, aerobic, agar dilution
[24] = Staphylococcus aureus Smith, aerobic, agar dilution

**Q.** Which results are given for `CN1COc2c(N3CCC(O)C3)c(F)cc3c(=O)c(C(=O)O)cn1c23` (centres unmarked) [Example 21, 9-fluoro-10-(3-hydroxy-1-pyrrolidinyl)-3-methyl-7-oxo-2,3-dihydro-7H-pyrido[3,2,1-ij]-1,3,4-benzoxadiazine-6-carboxylic acid]?
**A.** MIC [1]: 0.39 µg/mL (≈ 1.12 µM); MIC [2]: 0.39 µg/mL (≈ 1.12 µM); MIC ([3]; Staphylococcus aureus): 0.39 µg/mL (≈ 1.12 µM); MIC [4]: 0.39 µg/mL (≈ 1.12 µM); MIC [5]: 0.78 µg/mL (≈ 2.23 µM); MIC [6]: 0.05 µg/mL (≈ 0.143 µM); MIC [7]: 0.2 µg/mL (≈ 0.573 µM); MIC [8]: 3.13 µg/mL (≈ 8.96 µM); MIC [9]: 0.78 µg/mL (≈ 2.23 µM); MIC [10]: 0.2 µg/mL (≈ 0.573 µM); MIC [11]: 0.78 µg/mL (≈ 2.23 µM); MIC [12]: 0.2 µg/mL (≈ 0.573 µM); MIC [13]: 0.78 µg/mL (≈ 2.23 µM); MIC ([14]; Staphylococcus aureus): 0.39 µg/mL (≈ 1.12 µM); MIC [15]: 0.78 µg/mL (≈ 2.23 µM); MIC [16]: 1.56 µg/mL (≈ 4.47 µM); MIC [17]: 0.39 µg/mL (≈ 1.12 µM); MIC [18]: 0.05 µg/mL (≈ 0.143 µM); MIC [19]: 3.13 µg/mL (≈ 8.96 µM); MIC [20]: 0.78 µg/mL (≈ 2.23 µM); MIC [21]: 0.2 µg/mL (≈ 0.573 µM); MIC [22]: 0.39 µg/mL (≈ 1.12 µM)

**Q.** Which MIC [1] does the source give for `CCN1CCN(c2c(F)cc3c(=O)c(C(=O)O)cn4c3c2OCN4C)CC1` [Example 42] here?
**A.** 0.1 µg/mL (≈ 0.266 µM)

**Q.** And the MIC [2]?
**A.** 0.05 µg/mL (≈ 0.133 µM)

**Q.** What about the MIC [3, 23] of the same compound?
**A.** 0.39 µg/mL (≈ 1.04 µM)

**Q.** What about the MIC [4] of the same compound?
**A.** 0.39 µg/mL (≈ 1.04 µM)

**Q.** What about the MIC [5] of the same compound?
**A.** 0.05 µg/mL (≈ 0.133 µM)

**Q.** And the MIC [6]?
**A.** 0.025 µg/mL (≈ 0.0664 µM)

**Q.** What about the MIC [7] of the same compound?
**A.** 0.025 µg/mL (≈ 0.0664 µM)

**Q.** And the MIC [8]?
**A.** 6.25 µg/mL (≈ 16.6 µM)

**Q.** And the MIC [9]?
**A.** 0.39 µg/mL (≈ 1.04 µM)

**Q.** And the MIC [10]?
**A.** 0.1 µg/mL (≈ 0.266 µM)

**Q.** And the MIC [11]?
**A.** 0.39 µg/mL (≈ 1.04 µM)

**Q.** What about the MIC [12] of the same compound?
**A.** 0.025 µg/mL (≈ 0.0664 µM)

**Q.** And the MIC [13]?
**A.** 1.56 µg/mL (≈ 4.14 µM)

**Q.** And the MIC [14, 24]?
**A.** 0.39 µg/mL (≈ 1.04 µM)

**Q.** And the MIC [15]?
**A.** 0.39 µg/mL (≈ 1.04 µM)

**Q.** What about the MIC [16] of the same compound?
**A.** 0.39 µg/mL (≈ 1.04 µM)

**Q.** And the MIC [17]?
**A.** 0.39 µg/mL (≈ 1.04 µM)

**Q.** What about the MIC [18] of the same compound?
**A.** 0.05 µg/mL (≈ 0.133 µM)

**Q.** And the MIC [19]?
**A.** 3.13 µg/mL (≈ 8.32 µM)

**Q.** And the MIC [20]?
**A.** 0.05 µg/mL (≈ 0.133 µM)

**Q.** What about the MIC [21] of the same compound?
**A.** 0.39 µg/mL (≈ 1.04 µM)

**Q.** And the MIC [22]?
**A.** 0.025 µg/mL (≈ 0.0664 µM)

**Q.** `Cc1cn(-c2c(F)cc3c(=O)c(C(=O)O)cn4c3c2OCN4C)cn1` [Example 22] was tested. Which MIC [1] did it give?
**A.** 0.78 µg/mL (≈ 2.27 µM)

**Q.** And the MIC [2]?
**A.** 0.1 µg/mL (≈ 0.29 µM)

**Q.** What about the MIC [3, 23] of the same compound?
**A.** 0.2 µg/mL (≈ 0.581 µM)

**Q.** What about the MIC [4] of the same compound?
**A.** 0.39 µg/mL (≈ 1.13 µM)

**Q.** And the MIC [5]?
**A.** 0.1 µg/mL (≈ 0.29 µM)

**Q.** What about the MIC [6] of the same compound?
**A.** 0.0065 µg/mL (≈ 0.0189 µM)

**Q.** And the MIC [7]?
**A.** 0.1 µg/mL (≈ 0.29 µM)

**Q.** What about the MIC [8] of the same compound?
**A.** 3.13 µg/mL (≈ 9.09 µM)

**Q.** What about the MIC [9] of the same compound?
**A.** 0.78 µg/mL (≈ 2.27 µM)

**Q.** What about the MIC [10] of the same compound?
**A.** 0.1 µg/mL (≈ 0.29 µM)

**Q.** What about the MIC [11] of the same compound?
**A.** 1.56 µg/mL (≈ 4.53 µM)

**Q.** And the MIC [12]?
**A.** 0.025 µg/mL (≈ 0.0726 µM)

**Q.** What about the MIC [13] of the same compound?
**A.** 3.13 µg/mL (≈ 9.09 µM)

**Q.** And the MIC [14, 24]?
**A.** 0.2 µg/mL (≈ 0.581 µM)

**Q.** And the MIC [15]?
**A.** 0.39 µg/mL (≈ 1.13 µM)

**Q.** What about the MIC [16] of the same compound?
**A.** 1.56 µg/mL (≈ 4.53 µM)

**Q.** And the MIC [17]?
**A.** 0.2 µg/mL (≈ 0.581 µM)

**Q.** What about the MIC [18] of the same compound?
**A.** 0.05 µg/mL (≈ 0.145 µM)

**Q.** And the MIC [19]?
**A.** 6.25 µg/mL (≈ 18.2 µM)

**Q.** And the MIC [20]?
**A.** 0.1 µg/mL (≈ 0.29 µM)

**Q.** And the MIC [21]?
**A.** 0.39 µg/mL (≈ 1.13 µM)

**Q.** And the MIC [22]?
**A.** 0.1 µg/mL (≈ 0.29 µM)

**Q.** With `CN1COc2c(N3CCN(Cc4ccc(N)cc4)CC3)c(F)cc3c(=O)c(C(=O)O)cn1c23` [Example 53, 10-[4-(4-aminobenzyl)-1-piperazinyl]-9-fluoro-3-methyl-7-oxo-2,3-dihydro-7H-pyrido[3,2,1-ij]-1,3,4-benzoxadiazine-6-carboxylic acid] as the compound, how does the MIC [1] read?
**A.** 0.78 µg/mL (≈ 1.72 µM)

**Q.** And the MIC [2]?
**A.** 0.2 µg/mL (≈ 0.441 µM)

**Q.** And the MIC [3, 23]?
**A.** 0.1 µg/mL (≈ 0.221 µM)

**Q.** What about the MIC [4] of the same compound?
**A.** 0.1 µg/mL (≈ 0.221 µM)

**Q.** What about the MIC [5] of the same compound?
**A.** 0.2 µg/mL (≈ 0.441 µM)

**Q.** And the MIC [6]?
**A.** 0.1 µg/mL (≈ 0.221 µM)

**Q.** And the MIC [7]?
**A.** 0.1 µg/mL (≈ 0.221 µM)

**Q.** What about the MIC [8] of the same compound?
**A.** 1.56 µg/mL (≈ 3.44 µM)

**Q.** And the MIC [9]?
**A.** 1.56 µg/mL (≈ 3.44 µM)

**Q.** What about the MIC [10] of the same compound?
**A.** 0.2 µg/mL (≈ 0.441 µM)

**Q.** And the MIC [11]?
**A.** 0.78 µg/mL (≈ 1.72 µM)

**Q.** And the MIC [12]?
**A.** 0.05 µg/mL (≈ 0.11 µM)

**Q.** What about the MIC [13] of the same compound?
**A.** 3.13 µg/mL (≈ 6.9 µM)

**Q.** What about the MIC [14, 24] of the same compound?
**A.** 0.05 µg/mL (≈ 0.11 µM)

**Q.** And the MIC [15]?
**A.** 0.39 µg/mL (≈ 0.86 µM)

**Q.** And the MIC [16]?
**A.** 0.78 µg/mL (≈ 1.72 µM)

**Q.** And the MIC [17]?
**A.** 0.1 µg/mL (≈ 0.221 µM)

**Q.** And the MIC [18]?
**A.** 0.025 µg/mL (≈ 0.0551 µM)

**Q.** What about the MIC [19] of the same compound?
**A.** 12.5 µg/mL (≈ 27.6 µM)

**Q.** What about the MIC [20] of the same compound?
**A.** 0.1 µg/mL (≈ 0.221 µM)

**Q.** And the MIC [21]?
**A.** 0.1 µg/mL (≈ 0.221 µM)

**Q.** And the MIC [22]?
**A.** 0.1 µg/mL (≈ 0.221 µM)

**Q.** What does the source list for `COC1CCN(c2c(F)cc3c(=O)c(C(=O)O)cn4c3c2OCN4C)CC1` [Example 38, 9-fluoro-10-(4-methoxy-1-piperidyl)-3-methyl-7-oxo-2,3-dihydro-7H-pyrido[3,2,1-ij]-1,3,4-benzoxadiazine-6-carboxylic acid]?
**A.** MIC [1]: 12.5 µg/mL (≈ 33.1 µM); MIC [2]: 6.25 µg/mL (≈ 16.6 µM); MIC [3, 23]: 0.39 µg/mL (≈ 1.03 µM); MIC [4]: 0.39 µg/mL (≈ 1.03 µM); MIC [5]: 6.25 µg/mL (≈ 16.6 µM); MIC [6]: 3.13 µg/mL (≈ 8.29 µM); MIC [7]: 3.13 µg/mL (≈ 8.29 µM); MIC [8]: 12.5 µg/mL (≈ 33.1 µM); MIC [9]: 25 µg/mL (≈ 66.2 µM); MIC [10]: 6.25 µg/mL (≈ 16.6 µM); MIC [11]: 6.25 µg/mL (≈ 16.6 µM); MIC [12]: 0.39 µg/mL (≈ 1.03 µM); MIC [13]: 6.25 µg/mL (≈ 16.6 µM); MIC [14, 24]: 0.1 µg/mL (≈ 0.265 µM); MIC [15]: 25 µg/mL (≈ 66.2 µM); MIC [16]: 25 µg/mL (≈ 66.2 µM); MIC [17]: 0.39 µg/mL (≈ 1.03 µM); MIC [18]: ≤ 0.0008 µg/mL; MIC [19]: 50 µg/mL (≈ 132 µM); MIC [20]: 6.25 µg/mL (≈ 16.6 µM); MIC [21]: 0.2 µg/mL (≈ 0.53 µM); MIC [22]: 6.25 µg/mL (≈ 16.6 µM)

From patent US4864023A, “Pyrido(3,2,1-IJ)-1,3,4-benzoxadiazine derivatives” (priority 1988, dated 1989)
